Experiments:
[1] = system: streptozotocin-pretreated male Sprague-Dawley rats (experimental diabetes, type 1 diabetic condition); experiment: Example 1a: blood glucose over 4 h after SGLT2 inhibitor, insulin glargine or combination; format: in vivo, rat; settings: four hours after administration, Cpd. A 10 mg/kg oral, insulin glargine 1.5 IU/animal s.c.; for reduction of blood glucose versus control: combination at the same doses, 3-h fasted STZ rats; for statistical difference of blood glucose versus control: combination same doses
Method: All experimental protocols concerning the use of laboratory animals were reviewed by a federal Ethics Committee and approved by governmental authorities. Two weeks before the study starts, the rats were pretreated with a single dose of 60 mg/kg i.p. of streptozotocin to induced experimental diabetes, resembling a type 1 diabetic condition. During the study blood glucose was followed over 4 h in male, 3-h fasted Sprague-Dawley rats (Crl:CD) with an age of 8-9 weeks at the start of the study. A pre-dose blood sample was obtained by tail bleed for randomization and blood glucose was measured with a glucometer 30, 60, 90 min and 2, 3, 4 hours after administration of the insulin and/or the SGLT2 inhibitor. At time point 0 min, the animals (n=4-6 per group) were injected either with insulin glargine or isotonic NaCl subcutaneously. Simultaneously all animals received oral administrations of either vehicle alone (0.5% aqueous hydroxyethylcellulose) or this vehicle containing the SGLT2 inhibitor. The data are presented as mean±S.E.M. Statistical comparison was conducted by repeated measures two-way ANOVA (analysis of variance) followed by Bonferroni post tests for group-wise comparisons. A p value <0.05 was considered to show a statistically significant difference. The term “Cpd. A” denotes the SGLT2 inhibitor compound (1.9) at a dose of 10 mg/kg. Insulin glargine was administered at a dose of 1.5 IU/animal. The term “Cpd. A+Insulin glargine” denotes the combination of the SGLT2 inhibitor compound (1.9) and insulin glargine at the same doses. P values versus control are indicated by asterisks and p values of the monotherapies versus the combination are indicated by crosses (one symbol, p<0.05; two symbols, p<0.01; three symbols, p<0.001). Four hours after administration, the SGLT2 inhibitor had reduced blood glucose by 19% versus control, and insulin glargine by 27%.

[2] = system: streptozotocin-pretreated male Sprague-Dawley rats (experimental diabetes, type 1 diabetic condition); experiment: Example 1b: blood glucose over 6 h after SGLT2 inhibitor, insulin glargine or combination; format: in vivo, rat; settings: six hours after administration, Cpd. A 10 mg/kg oral, insulin glargine 1.5 μl/animal s.c.; for reduction of blood glucose versus control: combination at the same doses, 3-h fasted STZ rats; for statistical difference of blood glucose versus control: combination same doses
Method: All experimental protocols concerning the use of laboratory animals were reviewed by a federal Ethics Committee and approved by governmental authorities. Two weeks before the study starts, the rats were pretreated with a single dose of 60 mg/kg i.p. of streptozotocin to induced experimental diabetes, resembling a type 1 diabetic condition. During the study blood glucose was followed over 6 h in male, 3-h fasted Sprague-Dawley rats (Crl:CD) with an age of 8-9 weeks at the start of the study. A pre-dose blood sample was obtained by tail bleed for randomization and blood glucose was measured with a glucometer 30, 60, 90 min and 2, 3, 4, 5, 6 hours after administration of insulin and/or the SGLT2 inhibitor. At time point 0 min, the animals (n=4-6 per group) were injected either with insulin glargine or isotonic NaCl subcutaneously. Simultaneously all animals received oral administrations of either vehicle alone (0.5% aqueous hydroxyethylcellulose) or this vehicle containing the SGLT2 inhibitor. The data are presented as mean±S.E.M. Statistical comparison was conducted by repeated measures two-way ANOVA followed by Bonferroni post tests for group-wise comparisons. A p value <0.05 was considered to show a statistically significant difference. The term “Cpd. A” denotes the SGLT2 inhibitor compound (1.9) at a dose of 10 mg/kg. Insulin glargine was administered at a dose of 1.5 μl/animal. The term “Cpd. A+Insulin glargine” denotes the combination of the SGLT2 inhibitor compound (1.9) and insulin glargine at the same doses. P values versus control are indicated by asterisks and p values of the monotherapies versus the combination are indicated by crosses (one symbol, p<0.05; two symbols, p<0.01; three symbols, p<0.001). Six hours after administration, the SGLT2 inhibitor had reduced blood glucose by 13% versus control, and insulin glargine by 22%.

[3] = system: the diabetic; settings: metformin on its own; cited from earlier work
[4] = system: streptozotocin-pretreated male Sprague-Dawley rats (experimental diabetes, type 1 diabetic condition); experiment: Example 2b: blood glucose over 6 h, SGLT2 inhibitor plus low-dose insulin glargine versus high-dose insulin glargine; format: in vivo, rat; settings: for reduction of blood glucose versus control: six hours after administration; for statistical difference of blood glucose versus control: six hours
Method: All experimental protocols concerning the use of laboratory animals were reviewed by a federal Ethics Committee and approved by governmental authorities. Two weeks before the study starts, the rats were pretreated with a single dose of 60 mg/kg i.p. of streptozotocin to induced experimental diabetes, resembling a type 1 diabetic condition. During the study blood glucose was followed over 6 h in male, 3-h fasted Sprague-Dawley rats (Crl:CD) with an age of 8-9 weeks at the start of the study. A pre-dose blood sample was obtained by tail bleed for randomization and blood glucose was measured with a glucometer 30, 60, 90 min and 2, 3, 4, 5, 6 h after administration of insulin alone or together with the SGLT2 inhibitor. At time point 0 min, the animals (n=4-6 per group) were injected either with insulin glargine or isotonic NaCl subcutaneously. Simultaneously all animals received oral administrations of either vehicle alone (0.5% aqueous hydroxyethylcellulose) or this vehicle containing the SGLT2 inhibitor. The data are presented as mean±S.E.M. Statistical comparison was conducted by repeated measures two-way ANOVA followed by Bonferroni post tests for group-wise comparisons. A p value <0.05 was considered to show a statistically significant difference. Insulin glargine was administered at a dose of 1.5 μl/animal (low-dose) or 6 IU/animal (high-dose). The term “Cpd. A+low-dose insulin glargine” denotes the combination of the SGLT2 inhibitor at a dose of 10 mg/kg and insulin glargine at a dose of 1.5 μl/animal. P values versus control are indicated by asterisks and p values of the low-dose insulin glargine versus the combination or the high-dose insulin glargine are indicated by crosses (one symbol, p<0.05; two symbols, p<0.01; three symbols, p<0.001). […] The combination had decreased blood glucose by 49%, which was in the range of the high-dose insulin glargine with a decrease of 44%.

[5] = system: streptozotocin-pretreated male Sprague-Dawley rats (experimental diabetes, type 1 diabetic condition); experiment: Example 2a: blood glucose over 4 h, SGLT2 inhibitor plus low-dose insulin glargine versus high-dose insulin glargine; format: in vivo, rat; settings: for reduction of blood glucose versus control: four hours after administration; for statistical difference of blood glucose versus control: four hours
Method: All experimental protocols concerning the use of laboratory animals were reviewed by a federal Ethics Committee and approved by governmental authorities. Two weeks before the study starts, the rats were pretreated with a single dose of 60 mg/kg i.p. of streptozotocin to induced experimental diabetes, resembling a type 1 diabetic condition. During the study blood glucose was followed over 4 h in male, 3-h fasted Sprague-Dawley rats (Crl:CD) with an age of 8-9 weeks at the start of the study. A pre-dose blood sample was obtained by tail bleed for randomization and blood glucose was measured with a glucometer 30, 60, 90 min and 2, 3, 4 h after administration of the insulin alone or together with the SGLT2 inhibitor. At time point 0 min, the animals (n=4-6 per group) were injected either with insulin glargine or isotonic NaCl subcutaneously. Simultaneously all animals received oral administrations of either vehicle alone (0.5% aqueous hydroxyethylcellulose) or this vehicle containing the SGLT2 inhibitor. The data are presented as mean±S.E.M. Statistical comparison was conducted by repeated measures two-way ANOVA followed by Bonferroni post tests for group-wise comparisons. A p value <0.05 was considered to show a statistically significant difference. Insulin glargine was administered at a dose of 1.5 μl/animal (low-dose) or 6 μl/animal (high-dose). The term “Cpd. A+low-dose insulin glargine” denotes the combination of the SGLT2 inhibitor at a dose of 10 mg/kg and insulin glargine at a dose of 1.5 μl/animal. P values versus control are indicated by asterisks and p values of the low-dose insulin glargine versus the combination or the high-dose insulin glargine are indicated by crosses (one symbol, p<0.05; two symbols, p<0.01; three symbols, p<0.001). […] The combination had decreased blood glucose by 53%, which was in the range of the high-dose insulin glargine with a decrease of 47%.

[6] = low-dose insulin glargine 1.5 μl/animal s.c., alone or with Cpd. A 10 mg/kg oral
[7] = low-dose insulin glargine 1.5 μl/animal, alone or with Cpd. A 10 mg/kg

Compound | reduction of blood glucose versus control [1] [%] | statistical difference of blood glucose versus control [1] | reduction of blood glucose versus control [2] [%] | statistical difference of blood glucose versus control [2] | average improvement in the HbA1c value [3] | reduction of blood glucose versus control ([4]; high-dose insulin glargine 6 IU/animal s.c.) [%] | reduction of blood glucose versus control [4, 6] [%] | statistical difference of blood glucose versus control ([4]; high-dose insulin glargine 6 IU/animal) | statistical difference of blood glucose versus control [4, 7] | reduction of blood glucose versus control ([5]; high-dose insulin glargine 6 μl/animal s.c.) [%] | reduction of blood glucose versus control [5, 6] [%] | statistical difference of blood glucose versus control ([5]; high-dose insulin glargine 6 μl/animal) | statistical difference of blood glucose versus control [5, 7]
OC[C@H]1O[C@@H](c2ccc(Cl)c(Cc3ccc(O[C@H]4CCOC4)cc3)c2)[C@H](O)[C@@H](O)[C@@H]1O [compound (1.9), 1-chloro-4-(β-D-glucopyranos-1-yl)-2-[4-((S)-tetrahydrofuran-3-yloxy)-benzyl]-benzene] | 19 | did not show statistically significant differences versus control | 13 | did not show statistically significant differences versus control | – | – | – | – | – | – | – | – | –
CN(C)C(=N)N=C(N)N [metformin] | – | – | – | – | 1.0-1.5% | – | – | – | – | – | – | – | –
Gly^A21, Arg^B31, Arg^B32 human insulin [insulin glargine] | 27 | did not show statistically significant differences versus control | 22 | did not show statistically significant differences versus control | – | 44 | 22 | significantly different from the control | without showing statistically significant difference | 47 | 27 | significantly different from the control | without showing statistically significant difference

From US20220152159A1, “PHARMACEUTICAL COMPOSITION, METHODS FOR TREATING AND USES THEREOF” (Boehringer Ingelheim International GmbH, priority 2010, published 2022)
